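Growth conditions: 96-well plates. Treatment: test compound, 48 hours, 5 concentrations. Analysis: linear interpolation between bracketing concentrations; unreached endpoints set to highest concentration. At the GI50, growth is halved. Definition used: TGI = concentration required for complete inhibition of growth.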
Key:
Assay in all cases: NCI-60 cell line screen, 48 h
[1] = tested on: NCI/ADR-RES ovarian
[2] = tested on: SF-539 CNS
[3] = tested on: UACC-257 melanoma
[4] = tested on: MALME-3M melanoma
[5] = tested on: NCI-H522 lung
[6] = tested on: NCI-H23 lung
[7] = tested on: HCT-15 colon
[8] = tested on: K-562 leukemia
[9] = tested on: SK-MEL-2 melanoma
[10] = tested on: HL-60(TB) leukemia

SMILES	TGI [1] [µM]	TGI [2] [µM]	TGI [3] [µM]	TGI [4] [µM]	TGI [5] [µM]	TGI [6] [µM]	TGI [7] [µM]	TGI [8] [µM]	TGI [9] [µM]	TGI [10] [µM]	GI50 [2] [µM]	GI50 [10] [µM]	GI50 [3] [µM]	GI50 [4] [µM]	GI50 [5] [µM]	GI50 [6] [µM]	GI50 [7] [µM]	GI50 [8] [µM]	GI50 [9] [µM]
NC(Cc1ccccc1)c1nccs1 (stereo not drawn)	> 100	> 100	> 100	> 100	> 100	> 100	> 100	> 100	> 100										
CC1c2[nH]c3ccccc3c2CCN1O (stereo not drawn)		> 100	> 100	> 100	> 100	> 100	> 100	> 100	> 100	> 100									
COC(=O)C1CCc2nnc(-c3ccccc3)n21 (stereo not drawn)		> 100	> 100	> 100	> 100	> 100	> 100	> 100	> 100	> 100									
CC(=O)NN1C(=O)C(Cc2ccccc2)c2ccccc21 (stereo not drawn)		> 100	> 100	> 100		> 100	> 100	> 100	> 100										
COc1cc2cnc3c4cc(OCc5ccccc5)ccc4ccc3c2cc1OC		> 100	> 100	> 100	> 100	75.7	> 100	> 100	63	9.27									
CCC[CH2][Sn]1([CH2]CCC)[S]CC[N]1S(=O)(=O)c1ccc(C)cc1		2.68	2.5	2.33	0.508	1.94	2.93	1.97	2.73	2.73	1.36	0.581	1.23	1.09	0.217	0.638	1.51	0.341	1.39
CC1=NOC(=O)/C1=C/c1ccc2c(c1)OCO2	> 100	64.9	> 100	> 100	> 100	> 100	45.3	> 100	39										
CC1SC(c2ccc(Cl)cc2Cl)N(NC(=O)C(O)c2ccccc2)C1=O (stereo not drawn)		> 100	> 100	> 100	> 100	> 100	> 100	> 100	> 100		> 100		61.7	70.3	41.9	64.1	61.3	39.7	> 100
COc1ccc(OC(C)C(=O)O)c2c(=O)ccccc12 (stereo not drawn)		> 100	> 100	> 100	> 100	> 100	> 100	> 100	> 100	> 100									
NC(=O)c1ccc(Cl)c([N+](=O)[O-])c1		> 100	> 100	> 100	> 100	> 100	> 100	> 100		> 100									
O=c1/c(=N\Nc2ccccc2)c2cccc3ccc4cccc1c4c32	> 100		> 100	> 100	> 100	> 100	> 100	> 100	> 100										
C=C1C[C@@H]2C[C@@H](C)CC(O)[C@]2(CCCN)C1O (stereo partly drawn)		> 100	> 100	> 100	> 100	> 100		> 100	> 100	> 100									
C1=CCCC=CCC1.C[PH+](C)C.C[PH+](C)C.C[PH+](C)C.[Cl-].[Ir]		> 100	59.1	61.5	60.1	> 100	> 100	> 100	60.4	75.3	> 100	28.7	23.2	22.9	26.4	> 100	> 100	26.6	23.4
c1ccc(OC2=NC3=S(S2)SC(Oc2ccccc2)=N3)cc1		54.6	34.7	41.7	36.1	49	43.3	38	29.8	42.5									
COc1cc(/C=C2\CCCC3=C2N=C2SC(C)=NN2C3c2cc(OC)c(OC)c(OC)c2)cc(OC)c1OC (stereo not drawn)			> 100	> 100				> 100	> 100				> 100	> 100				0.42	> 100
CCC(CO)Nc1nc2c(c(=O)n(C)c(=O)n2C)n1CCO (stereo not drawn)		> 100	> 100	> 100		> 100	> 100	> 100	> 100										
COC(=O)N/N=C(\C)CC(=O)Nc1ccc(Cl)cc1		> 100	> 100	> 100	> 100	> 100		> 100	> 100	> 100									
COC(=O)CC[C@]12C[C@]13CC[C@]1(C)C4C(C)C[C@]5(CC(C)C(=O)O5)OC4CC1(C)C3CCC2C(C)(C)O (stereo partly drawn)		> 100	> 100	> 100	> 100	> 100	> 100	> 100	82.6	66.1									
COc1ccc2c(c1)CCc1c-2n[nH]c1-c1[nH]nc2c1CCc1cc(OC)ccc1-2		63.2	> 100	> 100	67.4	> 100	> 100	> 100	> 100	> 100									
CC(=O)[CH-]C(=O)c1ccccc1.CC(=O)[CH-]C(=O)c1ccccc1.[O-]c1ccc2c(c1)OCO2.[O-]c1ccc2c(c1)OCO2.[Ti+4]		> 100	> 100	50.2	42.1	64.4	> 100	> 100	57.7	48	28.4	10.7	44	23.1	16.5	22.4	34.4	31.5	22.5
CO[C@@]1(c2ccccc2)O[C@H]2OCCC2[C@H]1c1ccc(Cl)cc1 (stereo partly drawn)		> 100	44.6	84.8	67.9	81.6	> 100	> 100	80.9										
